US20200129476A1, “PARP Inhibitor in Combination with a Glucocorticoid and/or Ascorbic Acid and/or a Protein Growth Factor for the Treatment of Impaired Wound Healing” (AKRIBES BIOMEDICAL GMBH, priority 2017, published 2020)
“Also recorded” adds a separate entry of the source.

Experiments:
IL-1α = assay: Fibroblast-macrophage coculture with wound exudate: IL-1α; format: cell-based, human; conditions: WE #78; veliparib 10 μM, talazoparib 0.1 μM
Description: CD14^+ monocytes, isolated from PBMC of healthy donors by magnetic bead separation were incubated either alone or in the presence of primary human dermal fibroblasts (CelINTec) or fibroblast-derived matrices (FDM). FDM had been generated from primary human dermal fibroblasts by a 3-week incubation with the growth supplements vitamin C or insulin and EGF (vitamin C: 2-phospho-L-ascorbic acid trisodium salt, 100 μg/ml; human EGF, 5 ng/ml; human insulin, 5 μg/ml). Alternatively, fibroblast monolayer cultures can be used as well. After 4 days to a week to allow for macrophage differentiation in the presence or absence of M-CSF (25 ng/ml), the cultures were stimulated overnight with graded concentrations of test compounds in the absence or presence of various dilutions of sterile-filtered WE. IFN-g (50 ng/ml), LPS (100 ng/ml) and IL-4 (25 ng/ml) or combinations thereof served as controls for M1 and M2 macrophage induction. For negative control samples, medium was added instead of specific stimuli. WE were added to the culture medium for overnight stimulation at dilutions ranging from 1:25 to 1:100.
Supernatants were harvested and frozen for cytokine determination by ELISA, and cells were harvested and subjected to FACS analysis, gating on the monocyte population. Geometric means or mean fluorescence intensities (MFI) were used to quantify surface marker expression. […]

IL-1ß = IL-1ß secretion by HDF in the presence of wound exudate (ELISA); format: cell-based, human; conditions: FIG. 22; WE #43 and #78 used with veliparib
Description: (§1) Primary human dermal fibroblasts (HDF) were purchased from CELLnTEC, Bern. They were routinely grown in Dulbecco's modified Eagle's medium (DMEM) containing 10% FCS, 2 mM glutamine, and 100 U/ml penicillin/100 μg/ml streptomycin. Media, antibiotics, and glutamine were bought from Lonza. The cells were used at passage 5-15. Cells were trypsinized and seeded at 5000 cells/well in 200 μl into the inner wells of 96-well plates. The outer wells were loaded with sterile water. The cells were allowed to adhere overnight and then incubated for 72 hours at 37° C. under the following conditions: graded compound concentrations or 20 ng/ml PDGF-BB (Tonbo Biosciences) in the absence or presence of different dilutions of sterile-filtered WE in medium. For control samples, 200p1 medium was added instead of specific stimuli. Alternatively, the cells were seeded into 384-well plates at 2500 cells/well directly together with test compounds or growth factors and WE or medium in a total volume of […].
At the end of the 72-hour incubation period, supernatants were removed for the determination of IL-1ß, and the cells were fixed with 4% paraformaldehyde (Morphisto) for 15 minutes at room temperature and washed 3 times with PBS. A control plate was fixed after the overnight adherence of the cells (day 1) to determine the starting cell number.
IL-1ß levels were determined with a commercial ELISA kit. The amount of IL-1ß contained in the wound exudate added to the cells was subtracted from the total IL-ß in the supernatants in order to determine the cytokine secreted by the cells.

[1] = system: alpha-smooth muscle actin (α-SMA); assay: Immunolocalization of alpha-smooth muscle actin in 2D fibroblast culture (myofibroblast differentiation); format: cell-based, human
Description: as §1, with “The cells were allowed to adhere overnight and then incubated for 72 hours at 37° C. under the following conditions: graded compound concentrations or 20 ng/ml PDGF-BB (Tonbo Biosciences) in the absence or presence of different dilutions of sterile-filtered WE in medium.” left out
After fixation with paraformaldehyde, the cells were incubated for 1 hour at room temperature with a monoclonal mouse-anti-human antibody against alpha-smooth muscle actin (α-SMA) from e-Bioscience, washed 3 times with PBS and developed with an Alexa Fluor-labelled donkey-anti-mouse IgG (Molecular Probes). The cells were washed 3 times with PBS and examined in a Zeiss ZEISS Observer.Z1 microscope, using the software AxioVision 48.

[2] = system: primary human dermal fibroblasts (HDF); assay: Fibroblast-derived matrix (FDM) formation assay (3D), with or without wound exudate; format: cell-based
Description: HDF cells were seeded at 5000 cells/well on day −3 into 96-well tissue culture plates (1250 cells/well for 384-well plates), which had been pre-coated for 1 hour at 37° C. with 0.2% gelatin solution (Sigma). When the cells reached confluence (=day 0), a matrix promoting supplement (vitamin C: 2-phospho-L-ascorbic acid trisodium salt, 100 μg/ml; Sigma) was added together with test samples containing PDGF-BB, TGF-ß1 or graded concentrations of compounds −/+WE as described for the HDF proliferation assay. After 4 days, medium was replaced by fresh vitamin C- and stimulus- as well as compound-containing medium, maintaining the conditions initiated on day 0. TGF-ß1 and PDGF-BB were included as positive controls to promote FDM formation and cell growth, respectively. After a total incubation time of 8 days, FDM production was measured in fixed cultures via SRB staining and evaluated as described above. In some cases, the experiment was stopped and evaluated already on day 4.
Low molecular weight compounds (see list in Table 1) were dissolved in DMSO (Bioreagent for cell culture, Sigma) at 10 mM or 100 mM and diluted at least 1:1000 in medium for cellular assays (final DMSO concentration ≤0.1%). Compounds were typically tested in half-logarithmic dilution series (1:3.33), starting at 10 μM or 100 μM as the highest compound concentration.
Cells were incubated with compounds for 72 hours in proliferation assays and up to 8 days for FDM assay (refreshed after 4 days). When compounds were tested for their effect on WE stimulation, the incubation of cells with compounds was started and ended simultaneously with WE-incubation.

SMILES: C[C@]1(c2nc3c(C(N)=O)cccc3[nH]2)CCCN1 [veliparib, 2-((2R)-2-methylpyrrolidin-2-yl)-1H-benzimidazole-4-carboxamide]
- IL-1α induced by wound exudate (IL-1α): reduced
- IL-1ß secretion induced by wound exudate (IL-1ß): reducing IL-1ß secretion
- staining for α-SMA ([1]; absence of WE, TGF-ß 20 ng/ml, veliparib 10 μM): has no effect; also recorded: had no effect
- staining for α-SMA, veliparib in combination with TGF-ß ([1]; presence of WE #78, veliparib 10 μM + TGF-ß 20 ng/ml): more strongly stained cells than veliparib alone
- FDM formation, veliparib combined with glucocorticoid ([2]; WE #49, non-diabetic, non-immunosuppressed patient (FIG. 8)): could be enhanced with glucocorticoids in another non-diabetic and non-immunosuppressed patient, but not vice versa; also recorded: could be enhanced with glucocorticoids, but not vice versa
- FDM formation, veliparib combined with glucocorticoid ([2]; WE #78, patient with diabetes, immunosuppression after kidney transplantation (FIG. 7)): enhances the effect of glucocorticoids
- FDM formation, combination of veliparib with dexamethasone versus each alone ([2]; WE present, microscopy (FIG. 6)): even superior to each substance alone
- fibroblast-derived matrix (FDM) formation ([2]; presence of WE #78 (FIG. 9)): strong positive effect
- fibroblast-derived matrix (FDM/ECM) formation ([2]; presence of wound exudate, WE not specified (FIG. 6: microscopy)): “cleaned up” WE-induced fibroblast matrix inhibition
